According to patent US20230062278A1, “COMPOUNDS FOR THE TREATMENT OF MYELOFIBROSIS” (ACTUATE THERAPEUTICS, INC., priority 2019, published 2023):

What was measured:
[1] = tested on: peripheral blood mononuclear cells from MF patients; test: ex vivo colony assay in methylcellulose, primary cells from MF patients; assay type: cell-based, human
Method: (§1) In order to study the effects of 9-ING-41 (alone and in combination with Ruxolitinib) on growth and proliferation in MF, ex vivo colony assays were conducted using primary cells from patients with previously untreated MF and normal bone marrow. The experiments were designed to assess the number, size, and morphology of stem/progenitor cells present in blood both with and without treatment.
(§2) Peripheral blood mononuclear cells from MF patients and bone marrow from healthy patients (control) were plated in methylcellulose in duplicate, containing cytokines, in the presence of either DMSO only, 9-ING-41 only, or a combination of 9-ING-41 and Ruxolitinib (0.05uM). Colonies were counted ten days later, and colony growth frequency, distribution, and morphology were calculated.

[2] = tested on: bone marrow from healthy patients; test: ex vivo colony assay in methylcellulose, normal bone marrow (control); assay type: cell-based, human; conditions: 9-ING-41 alone
Method: as §1, §2

[3] = tested on: renal cell carcinoma cell lines; conditions: renal cell carcinoma cell lines (Pal 2014); cited from earlier work

Cn1cc(C2=C(c3coc4ccc(F)cc34)C(=O)NC2=O)c2cc3c(cc21)OCO3 [9-ING-41, 3-(5-fluorobenzofuran-3-yl)-4-(5-methyl-5H-[1,3]dioxolo[4,5-f]indol-7-yl)pyrrole-2,5-dione]
primitive granulocytic/erythroid/macrophage/monocyte (GEMM) colony growth ([1]; 9-ING-41 only, MF cases as compared to normal, counted after ten days, FIGS. 1A, 1D, 2A, 2C): increased relative to 9-ING-41 concentration | size and presence of primitive colonies ([1]; MF cases 1 and 2, Ruxolitinib 0.05 µM where combined): increase in very large, fully differentiated primitive colonies | presence of erythroid (BFU-E), granulocytic (CFU-G) and granulocytic/monocytic (CFU-GM) colonies ([1]; after addition of 9-ING-41, colonies counted ten days after plating, vs DMSO): remained proportionally the same | colony size [2]: modest increase in colony size | antiproliferative activity: cell-cycle effect [3]: G0-G1 and G2-M phase arrest
